{"source": "patent US8455240B2", "about": "“Use of thermophilic sulphate-reducing archaea for the implementation of a process for the degradation of hydrocarbons” (Institut de Recherche pour le Development (I.R.D.), priority 2005, dated 2013)", "key": {"strain L-3 [1]": {"tested_on": "strain L-3", "assay": "Sources of carbon and energy used by the strain L-3", "assay_type": "cell-based, Archaeoglobus fulgidus CNCM I-3465 (strain L-3)", "conditions": "for OD 580 nm Final / H2S (480 nm) / OD 580 nm Initial: thiosulphate as electron acceptor; for H2S (480 nm): unit from b126", "protocol": "(§1) Experimentally, 4 ml of Cord-Ruwish reagent comprising 50 mmol/l of HCl and 5 mmol/l of CuSO4 are added to 0.1 ml of sample. Copper sulphate (CuSO4) by reacting with hydrogen sulphide (H2S), forms a copper sulphide precipitate (CuS) after the reaction: CuSO4+H2S→CuS+H2SO4\n(§2) According to this method, the CuS is assayed by spectrophotometry at 480 nm. The readings are carried out against a blank constituted by 4 ml of Cord-Ruwish reagent.\nThe analysis and quantification of the metabolites are carried out by HPLC by measuring the disappearance of the substrate and the appearance of different metabolism products.\nThe study of the growth of the strain L-3 in the presence of different sources of carbon and energy was carried out with thiosulphate as an electron acceptor. The monitoring was carried out by estimation of the cell biomass (OD 580 nm), by assay of the sulphide production (Cord-Ruwish). The results were confirmed by HPLC analyses, and completed in certain cases by a CO2 assay."}, "[2]": {"tested_on": "Archaeoglobus fulgidus DSM 4304", "assay": "Monitoring of thiosulphate during the degradation of fatty acids by A. fulgidus", "assay_type": "cell-based", "conditions": "E1/E2 replicates; for thiosulphate, time 0: time 0 (Jul. 4, 2005), butyrate, valerate 5 mM, others 2 mM", "protocol": "(§3) The thiosulphate and sulphate assays are carried out by ion chromatography.\n(§4) The analyses are carried out with a chromatograph (Compact IC 761, Metrohm) equipped with: • A […] ion-exchange column (Metrosep A SUPP 1-250 (6.1005.300)), size 4.6*250 mm; • The eluent used is Na2CO3 at a concentration of 3 mmol/l, at a flow rate of 1 to 2.5 ml/min; ((→the flow rate varies during the analysis)) • A sample processor (Metrohm 838); • A conductimeter; • A computer where the results are recorded, integrated and analyzed by software (761 Compact IC, Metrohm). III.3.2. Operating Method\n(§5) The operating conditions are such that the temperature is 20° C. and the pressure is 5 MPa. The samples to be analyzed are filtered. The injection volume is 20 μl. The detection is of conductimetric electrochemical type with chemical suppression allowing elution gradients.\n(§6) Monitoring of thiosulphate during the degradation of fatty acids by A. fulgidus and by L-3"}, "strain L-3 [3]": {"tested_on": "strain L-3", "assay": "Monitoring of thiosulphate during the degradation of fatty acids by L-3", "assay_type": "cell-based, Archaeoglobus fulgidus CNCM I-3465 (strain L-3)", "conditions": "E1/E2 replicates; for thiosulphate, time 0: time 0 (Feb. 5, 2005)", "protocol": "as §3, §4, §5, §6"}, "Archaeoglobus fulgidus": {"tested_on": "Archaeoglobus fulgidus", "assay": "Screening for hydrocarbon degradation, A. fulgidus (sulphide production, Cord-Ruwish)", "assay_type": "cell-based", "conditions": "for ΔS tf-ti: final minus initial sulphide", "protocol": "as §1, §2\nThe study of the hydrocarbon degradation abilities is an experiment which requires a particularly long incubation. Thus, it was carried out in Bellco tubes sealed with thick rubber stoppers.\nFor these experiments, tubes containing 10 ml of culture medium without substrate, are 10% inoculated, then the hydrocarbon is introduced by injection through the stopper.\nThe hydrocarbons chosen are model molecules belonging to the different classes of hydrocarbons, namely: • hexadecane (CH3(CH2)14CH3, C16), a saturated linear aliphatic hydrocarbon; • hexadecene (CH3(CH2)13CHCH2, C16:1), an unsaturated linear aliphatic hydrocarbon of biogenic origin; • dibenzothiophene (DBT, C12H8S), a sulphur-containing aromatic hydrocarbon.\nThe aliphatic hydrocarbons (C16; C16:1) are added to the corresponding tubes, at a rate of 0.04 ml/10 ml of culture medium. The aromatic hydrocarbons (DBT) are solubilized in 2,2,4,4,6,8,8-heptamethylnonane (HMN, C16H34) at a rate of 20 mg/ml of HMN, and 0.75 ml of this solution is injected into 10 ml of culture medium.\n3 tubes were produced for each test and control. The growth of the strains was monitored indirectly by the production of sulphide.\nA subculture was carried out starting from the preceding experiment on naphthalene, DBT solubilized as previously in HMN, and on HMN alone, for the two strains studied."}}, "note": "“And” between values parts separate entries of the source, which are not always exact repeats. Identical values can stand only once. Marks after values point to notes of the source that are not given here."}
{"compound": "O=C[C@H](O)[C@H](O)[C@H](O)CO", "note": "[Ribose, ribose]", "values": [{"measurement": "HPLC analyses, initial quantity of the substrate", "setting": "strain L-3 [1]; no increase in biomass or sulphide, explained by isomerization at high temperature", "value": "reduction in the initial quantity of the substrate"}, {"measurement": "OD 580 nm Final", "setting": "strain L-3 [1]", "value": "0.3422 and 0.21"}, {"measurement": "H2S (480 nm)", "setting": "strain L-3 [1]", "value": "0.6 mM and 0.5 mM"}]}
{"compound": "O=C(O)CCC(=O)O", "note": "[Succinate]", "values": [{"measurement": "OD 580 nm Final", "setting": "strain L-3 [1]", "value": "0.0659 and 0.0672"}, {"measurement": "OD 580 nm Initial", "setting": "strain L-3 [1]", "value": "0.0845 and 0.0791"}, {"measurement": "H2S (480 nm)", "setting": "strain L-3 [1]", "value": 0.3, "unit": "mM"}]}
{"compound": "CCCC(=O)O", "note": "[butyrate]", "values": [{"measurement": "thiosulphate, end of May 2005", "setting": "[2]", "value": 9.29, "unit": "mM"}, {"measurement": "thiosulphate, time 0", "setting": "[2]", "value": 12.51, "unit": "mM"}, {"measurement": "thiosulphate, time 0", "setting": "strain L-3 [3]", "value": 15.45, "unit": "mM"}]}
{"compound": "CCCCCCCCC(=O)O", "note": "[nonanoate]", "values": [{"measurement": "thiosulphate, end of May 2005", "setting": "[2]; listed as C9 fatty acid", "value": "7.65 mM and 10.52 mM"}]}
{"compound": "CCCCCCCC(=O)O", "note": "[octanoate]", "values": [{"measurement": "thiosulphate, end of May 2005", "setting": "[2]; listed as C8 fatty acid", "value": "8.2 mM and 9.27 mM"}, {"measurement": "thiosulphate, end of May 2005", "setting": "strain L-3 [3]; end of May 2005, listed as C8 fatty acid", "value": "9.56 and mM and 9.33 mM"}]}
{"compound": "CCCCCCCCCCCCCCCC(=O)O", "note": "[palmitate]", "values": [{"measurement": "thiosulphate, end of May 2005", "setting": "[2]", "value": 9.12, "unit": "mM"}, {"measurement": "thiosulphate, time 0", "setting": "[2]", "value": 11.54, "unit": "mM"}, {"measurement": "thiosulphate, time 0", "setting": "strain L-3 [3]", "value": 15.52, "unit": "mM"}]}
{"compound": "CCCCCCCCCCCCCCCCCC(=O)O", "note": "[stearate]", "values": [{"measurement": "thiosulphate, end of May 2005", "setting": "[2]; listed as C18 fatty acid", "value": "10.55 mM and 7.05 mM"}, {"measurement": "thiosulphate, time 0", "setting": "strain L-3 [3]", "value": "14.64* mM"}]}
{"compound": "Gelatin", "values": [{"measurement": "OD 580 nm Final", "setting": "strain L-3 [1]", "value": "0.0743 and 0.0767"}, {"measurement": "OD 580 nm Initial", "setting": "strain L-3 [1]", "value": "0.0629 and 0.0894"}, {"measurement": "H2S (480 nm)", "setting": "strain L-3 [1]", "value": "0.3 mM and 0.2 mM"}]}
{"compound": "Starch", "values": [{"measurement": "OD 580 nm Initial", "setting": "strain L-3 [1]", "value": "0.8834 and 0.8614"}, {"measurement": "H2S (480 nm)", "setting": "strain L-3 [1]", "value": "0.8 mM and 0.7 mM"}]}
{"compound": "hexadecene [C16:1]", "values": [{"measurement": "sulphide production (OD 480) 0 d", "setting": "Archaeoglobus fulgidus; 0 d, aromatics solubilized in HMN", "value": "0.8 mM and 0.6 mM"}, {"measurement": "sulphide production (OD 480) 45 d", "setting": "Archaeoglobus fulgidus; 45 d", "value": "3.6 mM and 4.3 mM"}, {"measurement": "ΔS tf-ti", "setting": "Archaeoglobus fulgidus", "value": "approximately 3 mM"}, {"measurement": "ΔS tf-ti", "setting": "Archaeoglobus fulgidus; listed as C16: 1", "value": "2.8 mM and 3.0 mM and 3.5 mM"}]}
